Measurements from PubChem BioAssay (NCI).
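Grown in 96-well plates, cells were treated for 48 hours with each compound at five concentrations. Insufficient inhibition: endpoint recorded as highest concentration tested. TGI: total growth inhibition.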

What was measured:
Test in all cases: NCI tumour cell line growth inhibition, 48 h
[1] = system: T-47D breast
[2] = system: UO-31 renal
[3] = system: BT-549 breast
[4] = system: SK-OV-3 ovarian
[5] = system: MCF7 breast
[6] = system: OVCAR-5 ovarian
[7] = system: XF 498 CNS
[8] = system: NCI/ADR-RES ovarian
[9] = system: HCC-2998 colon
[10] = system: SK-MEL-5 melanoma
[11] = system: LXFL 529 NSCLC
[12] = system: DLD-1 colon
[13] = system: HOP-92 NSCLC
[14] = system: SNB-78 CNS
[15] = system: HCT-116 colon
[16] = system: K-562 leukemia
[17] = system: EKVX NSCLC
[18] = system: CCRF-CEM leukemia
[19] = system: SN12C renal
[20] = system: KM20L2 colon
[21] = system: SF-295 CNS
[22] = system: MDA-MB-435
[23] = system: TK-10 renal
[24] = system: NCI-H522 lung
[25] = system: COLO 205 colon
[26] = system: NCI-H460 lung
[27] = system: SR leukemia
[28] = system: OVCAR-8 ovarian
[29] = system: LOX IMVI melanoma
[30] = system: OVCAR-3 ovarian
[31] = system: ACHN renal
[32] = system: SK-MEL-28 melanoma
[33] = system: A549 NSCLC
[34] = system: HS 578T breast
[35] = system: HOP-62 NSCLC
[36] = system: SF-539 CNS
[37] = system: KM12 colon
[38] = system: HOP-18 NSCLC
[39] = system: NCI-H226 lung
[40] = system: PC-3 prostate
[41] = system: CAKI-1 renal
[42] = system: M14 melanoma
[43] = system: SW-620 colon
[44] = system: RXF-631 renal
[45] = system: MDA-MB-231 breast
[46] = system: RPMI-8226 leukemia
[47] = system: SK-MEL-2 melanoma
[48] = system: U251 CNS
[49] = system: SNB-19 CNS
[50] = system: 786-0 renal
[51] = system: MDA-N
[52] = system: MOLT-4 leukemia
[53] = system: HCT-15 colon
[54] = system: HL-60(TB) leukemia
[55] = system: RXF 393 renal
[56] = system: OVCAR-4 ovarian
[57] = system: SNB-75 CNS
[58] = system: MALME-3M melanoma
[59] = system: SF-268 CNS
[60] = system: NCI-H23 lung
[61] = system: IGROV1 ovarian
[62] = system: HT29 colon
[63] = system: UACC-257 melanoma
[64] = system: UACC-62 melanoma
[65] = system: DMS 273 small cell lung
[66] = system: A498 renal
[67] = system: DU-145 prostate
[68] = system: M19-MEL melanoma
[69] = system: DMS 114 small cell lung

Compound `COc1ccc2nc3cc(Cl)ccc3c(Nc3ccccc3-c3ccccc3Nc3c4ccc(Cl)cc4nc4ccc(OC)cc34)c2c1` has a TGI [1] of 75.4 µM, a TGI [2] of over 100 µM and a TGI [3] of 42.2 µM. It also gave a TGI [4] of over 100 µM, a TGI [5] of over 100 µM and a TGI [6] of over 85.9 µM. For the same compound, the TGI [7] was over 76.2 µM, the TGI [8] was over 100 µM and the TGI [9] was over 67.5 µM. For the same compound, the TGI [10] was 30.7 µM, the TGI [11] was over 50.5 µM and the TGI [12] was over 47.3 µM. The TGI [13] was over 82.5 µM, the TGI [14] was over 100 µM and the TGI [15] was over 100 µM. It also gave a TGI [16] of 59.3 µM, a TGI [17] of over 100 µM and a TGI [18] of over 49.2 µM. For the same compound, the TGI [19] was over 84.4 µM, the TGI [20] was over 81.4 µM and the TGI [21] was over 76.2 µM. It also gave a TGI [22] of over 100 µM, a TGI [23] of over 100 µM and a TGI [24] of 32 µM. The TGI [25] was over 88 µM, the TGI [26] was 98.9 µM and the TGI [27] was over 66.8 µM. It also gave a TGI [28] of over 100 µM, a TGI [29] of 47.4 µM and a TGI [30] of over 78.4 µM. For the same compound, the TGI [31] was over 59.2 µM, the TGI [32] was over 86.6 µM and the TGI [33] was over 100 µM. It also gave a TGI [34] of over 100 µM, a TGI [35] of over 94.9 µM and a TGI [36] of over 67.2 µM. The TGI [37] was over 100 µM, the TGI [38] was over 100 µM and the TGI [39] was over 73.4 µM. It also gave a TGI [40] of 63 µM, a TGI [41] of over 88.1 µM and a TGI [42] of over 87.5 µM. It also gave a TGI [43] of over 68.2 µM, a TGI [44] of over 100 µM and a TGI [45] of over 100 µM. It also gave a TGI [46] of over 47.7 µM, a TGI [47] of over 73.7 µM and a TGI [48] of over 93.5 µM. For the same compound, the TGI [49] was over 100 µM, the TGI [50] was over 59 µM and the TGI [51] was 24.7 µM. The TGI [52] was over 69.4 µM, the TGI [53] was over 66.9 µM and the TGI [54] was 16.8 µM. The TGI [55] was over 53.5 µM, the TGI [56] was 81.6 µM and the TGI [57] was over 72 µM. It also gave a TGI [58] of 68.6 µM, a TGI [59] of over 72.7 µM and a TGI [60] of over 100 µM. It also gave a TGI [61] of over 71.1 µM, a TGI [62] of 55.7 µM and a TGI [63] of over 46.4 µM. It also gave a TGI [64] of over 66.3 µM, a TGI [65] of over 54.9 µM and a TGI [66] of 97.5 µM. For the same compound, the TGI [67] was over 100 µM and the TGI [68] was over 93.3 µM.
`C=CC[P@]1(=O)O[C@H](c2ccccc2)C(C)N1C(C)C` (some centres undefined) gave a TGI [2] of over 100 µM, a TGI [4] of over 100 µM and a TGI [6] of over 100 µM. It also gave a TGI [7] of over 100 µM, a TGI [9] of over 100 µM and a TGI [10] of over 100 µM. The TGI [11] was over 100 µM, the TGI [12] was over 100 µM and the TGI [13] was over 100 µM. The TGI [15] was over 100 µM, the TGI [16] was over 100 µM and the TGI [17] was over 100 µM. For the same compound, the TGI [18] was over 100 µM, the TGI [19] was over 100 µM and the TGI [20] was over 100 µM. The TGI [21] was over 100 µM, the TGI [23] was over 100 µM and the TGI [24] was over 100 µM. It also gave a TGI [25] of over 100 µM, a TGI [26] of over 100 µM and a TGI [27] of over 100 µM. For the same compound, the TGI [69] was over 100 µM, the TGI [28] was over 100 µM and the TGI [29] was over 100 µM. For the same compound, the TGI [30] was over 100 µM, the TGI [31] was over 100 µM and the TGI [32] was over 100 µM. For the same compound, the TGI [33] was over 100 µM, the TGI [35] was over 100 µM and the TGI [36] was over 100 µM. For the same compound, the TGI [37] was over 100 µM, the TGI [38] was over 100 µM and the TGI [39] was over 100 µM. The TGI [42] was over 100 µM, the TGI [43] was over 100 µM and the TGI [44] was over 100 µM. For the same compound, the TGI [46] was over 100 µM, the TGI [47] was over 100 µM and the TGI [48] was over 100 µM. It also gave a TGI [49] of over 100 µM, a TGI [50] of over 100 µM and a TGI [52] of over 100 µM. It also gave a TGI [53] of over 100 µM, a TGI [54] of over 100 µM and a TGI [55] of over 100 µM. For the same compound, the TGI [57] was over 100 µM, the TGI [58] was over 100 µM and the TGI [59] was over 100 µM. The TGI [60] was over 100 µM, the TGI [61] was over 100 µM and the TGI [62] was over 100 µM. For the same compound, the TGI [63] was over 100 µM, the TGI [64] was over 100 µM and the TGI [66] was over 100 µM. The TGI [68] was over 100 µM.
In the case of `COc1ccc2nc3cc(Cl)ccc3c(Sc3ccc(N)cc3)c2c1`, the TGI [2] is reported as 22.7 µM, the TGI [4] is reported as 18.3 µM and the TGI [6] is reported as 34.8 µM. For the same compound, the TGI [7] was 27.5 µM, the TGI [9] was 25.1 µM and the TGI [10] was 25.3 µM. For the same compound, the TGI [11] was 16 µM, the TGI [12] was 19.8 µM and the TGI [13] was 39.7 µM. For the same compound, the TGI [14] was 34 µM, the TGI [15] was 17.3 µM and the TGI [16] was 13.8 µM. The TGI [17] was 25.4 µM, the TGI [18] was 18.7 µM and the TGI [19] was 24 µM. The TGI [20] was 17.9 µM, the TGI [21] was 38.9 µM and the TGI [23] was 25.9 µM. It also gave a TGI [24] of 16.2 µM, a TGI [25] of 23.3 µM and a TGI [26] of 21.1 µM. The TGI [27] was 11.4 µM, the TGI [69] was 19 µM and the TGI [28] was 23.8 µM. It also gave a TGI [29] of 20.9 µM, a TGI [30] of 21.5 µM and a TGI [31] of 21.9 µM. For the same compound, the TGI [32] was 29.6 µM, the TGI [33] was 30.1 µM and the TGI [35] was 49.8 µM. The TGI [36] was 27.9 µM, the TGI [37] was 19.4 µM and the TGI [38] was 25.3 µM. For the same compound, the TGI [39] was 34.3 µM, the TGI [41] was 29.6 µM and the TGI [42] was 22 µM. It also gave a TGI [43] of 12.8 µM, a TGI [44] of 34.4 µM and a TGI [47] of 27.7 µM. It also gave a TGI [48] of 22.6 µM, a TGI [49] of 33.4 µM and a TGI [50] of 19.8 µM. The TGI [52] was 9.65 µM, the TGI [53] was 20.1 µM and the TGI [55] was 24.7 µM. It also gave a TGI [56] of 29.9 µM, a TGI [57] of 23.2 µM and a TGI [58] of 30.1 µM. The TGI [59] was 34.4 µM, the TGI [60] was 27.9 µM and the TGI [61] was 32 µM. For the same compound, the TGI [63] was 26.1 µM, the TGI [64] was 17.8 µM and the TGI [65] was 23.5 µM. For the same compound, the TGI [66] was 76.3 µM and the TGI [68] was 20.2 µM.
